Results on 17 molecules are retold here after article PMC7178874, “The antibiotic furagin and its derivatives are isoform-selective human carbonic anhydrase inhibitors” (Journal of Enzyme Inhibition and Medicinal Chemistry, 2020).

Common to all, as to assay: stopped-flow CO2 hydration assay
Common to all, as to format: biochemical

The target of one assay is T1, hCA I (Homo sapiens, UniProt P00915).
T1 construct: gene CA1; recombinant, obtained in-house
Conditions: read-out: KI (nM)* / CA I (converted). From the text: stopped-flow CO2 hydration assay on hCA I

The target of another assay is T2, hCA XII (Homo sapiens, UniProt O43570).
T2 construct: gene CA12; recombinant, obtained in-house
To be noted: read-out: KI (nM)* / CA XII. The source says:
stopped-flow CO2 hydration assay on hCA XII

In another assay the target is T3, hCA IX (Homo sapiens, UniProt Q16790).
T3 construct: gene CA9; recombinant, obtained in-house
To be noted: read-out: KI (nM)* / CA IX. The source says:
stopped-flow CO2 hydration assay on hCA IX

For another assay, the target named is T4, hCA II (Homo sapiens, UniProt P00918).
T4 construct: gene CA2; recombinant, obtained in-house
Conditions: read-out: KI (nM)* / CA II (converted). The source says:
stopped-flow CO2 hydration assay on hCA II

T2 sequence (O43570 25-354 limits assumed): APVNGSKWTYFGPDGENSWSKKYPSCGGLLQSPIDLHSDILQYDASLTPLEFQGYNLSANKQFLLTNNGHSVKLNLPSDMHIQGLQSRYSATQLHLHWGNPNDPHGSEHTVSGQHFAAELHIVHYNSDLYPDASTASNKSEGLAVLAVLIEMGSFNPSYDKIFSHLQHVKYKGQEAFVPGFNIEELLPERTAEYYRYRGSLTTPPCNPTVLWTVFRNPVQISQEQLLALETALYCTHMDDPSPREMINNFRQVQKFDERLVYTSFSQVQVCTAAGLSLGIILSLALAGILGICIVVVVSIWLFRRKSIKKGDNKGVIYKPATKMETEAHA
T1 sequence (P00915 2-261): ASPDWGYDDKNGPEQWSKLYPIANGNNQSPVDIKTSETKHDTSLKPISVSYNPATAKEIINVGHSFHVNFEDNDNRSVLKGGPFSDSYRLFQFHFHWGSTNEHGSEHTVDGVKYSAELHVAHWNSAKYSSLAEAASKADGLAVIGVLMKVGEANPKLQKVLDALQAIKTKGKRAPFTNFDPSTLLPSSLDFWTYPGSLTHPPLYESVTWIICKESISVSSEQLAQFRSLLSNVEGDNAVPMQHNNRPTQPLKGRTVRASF

Regarding `O=C1CN(/N=C/C=C/c2ccc([N+](=O)[O-])o2)C(=O)N1` [Furagin], the Ki on hCA I is above 100000 nM; at hCA XII it was 57 nM; at hCA IX, 260 nM; at hCA II it was 9600 nM.
`O=C1CN(N=Cc2ccccc2)C(=O)N1` [compound 2, 1-(Benzylideneamino)-imidazolidine-2,4-dione]: the Ki was 39600 nM on hCA I, 5600 nM on hCA XII, 3500 nM at hCA IX and 900 nM at hCA II.
In the case of `COc1ccc(C=NN2CC(=O)NC2=O)cc1` [compound 3, 1-((4-Methoxybenzylidene)amino)imidazolidine-2,4-dione], the Ki on hCA I was 57600 nM; at hCA XII, 4700 nM; at hCA IX it was 1200 nM; at hCA II it was 6400 nM.
As to `O=C1CN(N=Cc2ccc([N+](=O)[O-])cc2)C(=O)N1` [compound 4, 1-((4-Nitrobenzylidene)amino)imidazolidine-2,4-dione], the Ki is above 100000 nM at hCA I, 2800 nM on hCA XII, 7400 nM on hCA IX and 11100 nM at hCA II.
The like results for `COC(=O)c1ccc(C=NN2CC(=O)NC2=O)cc1` [compound 5, Methyl 4-(((2,4-dioxoimidazolidin-1-yl)imino)methyl)benzoate] were, in that order, above 100000 nM, 930 nM, 4900 nM and 8300 nM.
The like results for `O=C1CN(N=CCCCC=NN2CC(=O)NC2=O)C(=O)N1` [compound 6, 1,1’-((Pentane-1,5-diylidene)bis(azaneylylidene))bis(imidazolidine-2,4-dione)] were, in that order, 19100 nM, 160 nM, 1100 nM and 4000 nM.
On the same counts, the results for `O=C1CN(N=Cc2ccoc2)C(=O)N1` [compound 7, 1-((Furan-3-ylmethylene)amino)imidazolidine-2,4-dione] are 16800 nM, 1700 nM, 850 nM and 710 nM.
On to `O=C1CN(N=Cc2ccc(OCc3ccccc3)cc2)C(=O)N1` [compound 8, 1-((4-(Benzyloxy)benzylidene)amino)imidazolidine-2,4-dione], for which the Ki on hCA I is above 100000 nM; on hCA XII, 910 nM; on hCA IX, 350 nM; on hCA II, 540 nM.
The like results for `CCOC(=O)/C=C/C=NN1CC(=O)NC1=O` [compound 9, Ethyl (2E)-4-((2,4-dioxoimidazolidin-1-yl)imino)but-2-enoate] were, in that order, 45900 nM, 440 nM, 810 nM and 23600 nM.
The like results for `CC(C)=CC=NN1CC(=O)NC1=O` [compound 10, 1-((3-Methylbut-2-en-1-ylidene)amino)imidazolidine-2,4-dione] were, in that order, 28800 nM, 880 nM, 2900 nM and 16500 nM.
The like results for `COc1ccc(/C=C/C=NN2CC(=O)NC2=O)cc1` [compound 11, 1-(((2e)-3–(4-methoxyphenyl)allylidene)amino)imidazolidine-2,4-dione] were, in that order, above 100000 nM, 360 nM, 400 nM and 3100 nM.
For the molecule `O=C1CN(N=Cc2ccc(O)cc2O)C(=O)N1` [compound 12, 1-((2,4-Dihydroxybenzylidene)amino)imidazolidine-2,4-dione], the Ki at hCA I is above 100000 nM; at hCA XII, 150 nM; on hCA IX, 5800 nM; on hCA II, 59900 nM.
As to `O=C1CN(N=Cc2ccc(B(O)O)cc2)C(=O)N1` [compound 13], the Ki is 90700 nM at hCA I, 230 nM at hCA XII, 7300 nM on hCA IX and 14200 nM at hCA II.
With `O=C1CN(N=Cc2ccccn2)C(=O)N1` [compound 14, 1-((Pyridin-2-ylmethylene)amino)imidazolidine-2,4-dione], the Ki at hCA I is 51800 nM; at hCA XII, 1300 nM; at hCA IX, 4500 nM; at hCA II, 4200 nM.
On the same counts, the results for `O=C1CN(N=Cc2cccnc2)C(=O)N1` [compound 15, 1-((Pyridin-3-ylmethylene)amino)imidazolidine-2,4-dione] are 45600 nM, 3200 nM, 2300 nM and 620 nM.
On the same counts, the results for `O=C1CN(N=Cc2ccncc2)C(=O)N1` [compound 16, 1-((Pyridin-4-ylmethylene)amino)imidazolidine-2,4-dione] are 26600 nM, 810 nM, 1600 nM and 3300 nM.
On the same counts, the results for `O=C1CN(N=Cc2cnc[nH]2)C(=O)N1` [compound 17, 1-(((1 h-Imidazol-5-yl)methylene)amino)imidazolidine-2,4-dione] are 9600 nM, 350 nM, 560 nM and 12400 nM.
